# Patent US20230265116A1, “DEGRADATION OF (EGFR) BY CONJUGATION OF EGFR INHIBITORS WITH E3 LIGASE LIGAND AND METHODS OF USE” (BEIGENE, LTD., priority 2020, published 2023)
# Like-named read-outs stand apart in the source and are kept apart here.
# Columns and labels:
# Type in all cases: cell-based
# [1] = biological target: T1, EGFR L858R/T790M/C797S (BaF3-LTC cells) (Homo sapiens, UniProt P00533, C797S/L858R/T790M); experiment: EGFR degradation HTRF assay, BaF3-LTC cells
# T1 construct: expressed in transfected cells; host or cells: BaF3
# T1 sequence (P00533 25-1210 T790M/C797S/L858R): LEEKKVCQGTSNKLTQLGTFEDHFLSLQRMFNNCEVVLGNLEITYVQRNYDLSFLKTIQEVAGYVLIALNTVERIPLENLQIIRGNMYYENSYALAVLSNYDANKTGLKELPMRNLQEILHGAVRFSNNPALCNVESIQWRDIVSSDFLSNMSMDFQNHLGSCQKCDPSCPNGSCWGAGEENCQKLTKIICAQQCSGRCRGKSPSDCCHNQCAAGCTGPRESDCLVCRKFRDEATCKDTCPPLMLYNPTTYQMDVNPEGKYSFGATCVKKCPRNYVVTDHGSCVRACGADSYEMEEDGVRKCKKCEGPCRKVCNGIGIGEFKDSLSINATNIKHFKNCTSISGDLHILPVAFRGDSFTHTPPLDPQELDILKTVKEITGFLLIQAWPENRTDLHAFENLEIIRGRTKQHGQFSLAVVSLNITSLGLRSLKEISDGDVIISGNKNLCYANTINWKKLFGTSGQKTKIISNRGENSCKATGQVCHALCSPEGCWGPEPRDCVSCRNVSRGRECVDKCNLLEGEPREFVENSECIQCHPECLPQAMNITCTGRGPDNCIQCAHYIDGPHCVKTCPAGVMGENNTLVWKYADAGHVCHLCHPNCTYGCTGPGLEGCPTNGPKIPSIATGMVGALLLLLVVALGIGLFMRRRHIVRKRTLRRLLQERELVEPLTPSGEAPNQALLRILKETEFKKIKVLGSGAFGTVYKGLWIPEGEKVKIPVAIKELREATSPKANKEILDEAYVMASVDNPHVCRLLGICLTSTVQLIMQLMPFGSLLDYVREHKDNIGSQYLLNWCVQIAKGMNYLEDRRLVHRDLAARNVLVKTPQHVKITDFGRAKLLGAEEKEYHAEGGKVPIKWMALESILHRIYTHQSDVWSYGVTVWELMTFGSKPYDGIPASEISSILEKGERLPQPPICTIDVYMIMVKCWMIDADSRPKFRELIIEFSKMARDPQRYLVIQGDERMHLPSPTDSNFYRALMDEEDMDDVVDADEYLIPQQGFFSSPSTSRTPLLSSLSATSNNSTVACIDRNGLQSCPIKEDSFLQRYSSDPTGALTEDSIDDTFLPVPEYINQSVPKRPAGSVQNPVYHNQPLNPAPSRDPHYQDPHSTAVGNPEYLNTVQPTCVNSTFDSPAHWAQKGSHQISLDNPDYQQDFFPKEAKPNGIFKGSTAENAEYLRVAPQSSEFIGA
# In short: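 EGFR remaining after a 16 h, 37 °C exposure (8 doses, 5-fold steps from 10 uM final, 0.2% DMSO) was quantified by HTRF antibodies in cell lysate. Percent inhibition relative to DMSO control was fitted by four-parameter logistic to give DC50; Dmax denotes maximal degradation.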
# [2] = tested on: EGFR Del19/T790M/C797S (BaF3-DTC cells); experiment: EGFR degradation HTRF assay, BaF3-DTC cells; settings: 16h treatment; for DTC Dmax (%): maximum percentage of degradation; for DC50: read-out: DTC DC50
# Experimental: BaF3 WT(wild type), BaF3-LTC(L858R/T790M/C797S) and BaF3-DTC(Del19/T790M/C797S) cells are treated with compounds diluted in 0.2% DMSO cell culture medium and incubate for 16h, 37° C., 5% CO2, H1975-#36, H1975-#28, H1975-#23 and HCC827 cells are treated with compounds diluted in 0.2% DMSO cell culture medium on day 2, incubate for 16h, 37° C., 5% CO2.the final concentriation of compounds in all assay is start with 10 uM, 5-fold dilution, total 8 doses were included.
# After 16h treatment, add HTRF lysis buffer to each well; seal the plate and incubate 1 hour at room temperature on a plate shaker; Once the cells are lysed, 16 μL of cell lysate are transferred to a PE 384-well HTRF detection plate; 4 μL of pre-mixed HTRF antibodies are added to each well; Cover the plate with a plate sealer, spin 1000 rpm for 1 min, Incubate overnight at room temperature; Read on BMG PheraStar with HTRF protocol (337 nm-665 nm-620 nm).
# The inhibition (degradation) percentage of the compound was calculated by the following equation: Inhibition percentage of Compound=100-100×(Signal-low control)/(High control-low control), wherein signal=each test compound group
# High control=Cell group with added DMSO and without compound, indicating microplate readings without EGFR degradation;
# Dmax is the maximum percentage of inhibition (degradation).
# The IC50 (DC50) value of a compound can be obtained by fitting the following equation
# Y=Bottom+(TOP−Bottom)/(1+((IC50/X)^hillslope))
# Wherein, X and Y are known values, and IC50, Hillslope, Top and Bottom are the parameters obtained by fitting with software. Y is the inhibition percentage (calculated from the equation), X is the concentration of the compound; IC50 is the concentration of the compound when the 50% inhibition is reached. The smaller the IC50 value is, the stronger the inhibitory ability of the compound is. Vice versa, the higher the IC50 value is, the weaker the inhibitory ability of the compound is; Hillslope represents the slope of the fitted curve, generally around 1*; Bottom represents the minimum value of the curve obtained by data fitting, which is generally 0%±20%; Top represents the maximum value of the curve obtained by data fitting, which is generally 100%±20%. The experimental data were fitted by calculating and analyzing with Dotmatics data analysis software.
# [3] = tested on: EGFR Del19/T790M/C797S (H1975-clone #28); experiment: EGFR degradation HTRF assay, H1975-clone #28 DTC cells; settings: H1975 # 28 DTC cells; for DC50: EGFR degradation, IC50 (DC50) from curve fit, read-out: DC50(nM) H1975 # 28 DTC; for Dmax (%) H1975 # 28 DTC: maximum percentage of inhibition (degradation)
# In short: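 Compounds (top 10 uM, 5-fold, 8 points, 0.2% DMSO) incubated 16 h at 37 °C on homozygous clones: #23 Del19/C797S, #28 Del19/T790M/C797S, exogenous EGFR only in H1975. HTRF on lysates quantified remaining EGFR relative to DMSO; four-parameter fit gave DC50 and Dmax.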
# [4] = BaF3-LTC, 16h treatment, maximum percentage of degradation, read-out: LTC Dmax (%)
# [5] = BaF3-LTC, 16h treatment, read-out: LTC DC50
# [6] = BaF3-LTC cells, EGFR degradation, IC50 (DC50) from curve fit, read-out: DC50(nM) BaF3-LTC
# [7] = BaF3-LTC cells, maximum percentage of inhibition (degradation), read-out: Dmax (%) BaF3-LTC
"Dmax [1, 4] [%]","DC50 [1, 5] [nM]",DC50 [2] [nM],"DC50 [1, 6] [nM]","Dmax [1, 7] [%]",DC50 [3] [nM],SMILES,DTC Dmax (%) [2] [%],Dmax (%) H1975 # 28 DTC [3] [%]
91.3,13.2,6.6,–,–,–,"CCc1cc(Nc2ncc(Br)c(Nc3ccc4nc(C)ccc4c3P(C)(C)=O)n2)c(OC)cc1N1CCC(N2CCN(CC3CN(c4ccc(C5CCC(=O)NC5=O)c(C#N)c4)C3)CC2)CC1 (centres unmarked) [Example 207, 5-(3-((4-(1-(4-((5-bromo-4-((5-(dimethylphosphoryl)-2-methylquinolin-6-yl)amino)pyrimidin-2-yl)amino)-2-ethyl-5-methoxyphenyl)piperidin-4-yl)piperazin-1-yl)methyl)azetidin-1-yl)-2-(2,6-dioxopiperidin-3-yl)benzonitrile]",90.41,–
90.8,9.35,4.29,–,–,–,"CCc1cc(Nc2ncc(Br)c(Nc3ccc4nc(C)ccc4c3P(C)(C)=O)n2)c(OC)cc1N1CCC(N2CCN(CCN(C)c3cc(F)c(C4CCC(=O)NC4=O)c(F)c3)CC2)CC1 (centres unmarked) [Example 433, 3-(4-((2-(4-(1-(4-((5-bromo-4-((5-(dimethylphosphoryl)-2-methylquinolin-6-yl)amino)pyrimidin-2-yl)amino)-2-ethyl-5-methoxyphenyl)piperidin-4-yl)piperazin-1-yl)ethyl)(methyl)amino)-2,6-difluorophenyl)piperidine-2,6-dione]",93.56,–
85.3,43.7,17.4,–,–,–,"CCc1cc(Nc2ncc(Br)c(Nc3ccc4nccnc4c3P(C)(C)=O)n2)c(OC)cc1N1CCC(N2CCN(CCc3ccc(C4CCC(=O)NC4=O)c(F)c3)[C@@H](COC)C2)CC1 (stereo partly drawn) [Example 293, 3-(4-(2-((R)-4-(1-(4-((5-bromo-4-((5-(dimethylphosphoryl)quinoxalin-6-yl)amino)pyrimidin-2-yl)amino)-2-ethyl-5-methoxyphenyl)piperidin-4-yl)-2-(methoxymethyl)piperazin-1-yl)ethyl)-2-fluorophenyl)piperidine-2,6-dione]",83.85,–
80.8,34.8,17.1,–,–,–,"CCc1cc(Nc2ncc(Br)c(Nc3ccc4nccnc4c3P(C)(C)=O)n2)c(OC)cc1N1CCC(N2CCN(CC3CN(c4ccc(C5CCC(=O)NC5=O)c(F)c4)C3)CC2)CC1 (centres unmarked) [Example 252, 3-(4-(3-((4-(1-(4-((5-bromo-4-((5-(dimethylphosphoryl)quinoxalin-6-yl)amino)pyrimidin-2-yl)amino)-2-ethyl-5-methoxyphenyl)piperidin-4-yl)piperazin-1-yl)methyl)azetidin-1-yl)-2-fluorophenyl)piperidine-2,6-dione]",85.86,–
91.4,20.5,4.91,–,–,–,"COc1cc(N2CCC(N3CCN(CCC4CCN(c5cc(F)c(C6CCC(=O)NC6=O)c(F)c5)CC4)CC3)CC2)c(C)cc1Nc1ncc(Br)c(Nc2ccc3nccnc3c2P(C)(C)=O)n1 (centres unmarked) [Example 215, 3-(4-(4-(2-(4-(1-(4-((5-bromo-4-((5-(dimethylphosphoryl)quinoxalin-6-yl)amino)pyrimidin-2-yl)amino)-5-methoxy-2-methylphenyl)piperidin-4-yl)piperazin-1-yl)ethyl)piperidin-1-yl)-2,6-difluorophenyl)piperidine-2,6-dione]",96.67,–
–,–,–,9.62,94.6,2.19,"CCc1cc(Nc2ncc(Br)c(Nc3ccc4nc(C#N)ccc4c3P(C)(C)=O)n2)c(OC)cc1N1CCC(N2CCN(C(=O)[C@@H]3CCN(c4cc(F)c([C@H]5CCC(=O)NC5=O)c(F)c4)C3)CC2)CC1 [Example 674, 6-((5-bromo-2-((4-(4-(4-((R)-1-(4-((R)-2,6-dioxopiperidin-3-yl)-3,5-difluorophenyl)pyrrolidine-3-carbonyl)piperazin-1-yl)piperidin-1-yl)-5-ethyl-2-methoxyphenyl)amino)pyrimidin-4-yl)amino)-5-(dimethylphosphoryl)quinoline-2-carbonitrile]",–,69.95
–,–,–,5.4,97,2.23,"CCc1cc(Nc2ncc(Br)c(Nc3ccc4nc(C)ccc4c3P(C)(C)=O)n2)c(OC)cc1N1CCC(N2CCN(C(=O)[C@@H]3CN(c4cc(F)c([C@H]5CCC(=O)NC5=O)c(F)c4)CC3(C)C)CC2)CC1 [Example 662, (R)-3-(4-((S)-4-(4-(1-(4-((5-bromo-4-((5-(dimethylphosphoryl)-2-methylquinolin-6-yl)amino)pyrimidin-2-yl)amino)-2-ethyl-5-methoxyphenyl)piperidin-4-yl)piperazine-1-carbonyl)-3,3-dimethylpyrrolidin-1-yl)-2,6-difluorophenyl)piperidine-2,6-dione]",–,89.14
–,–,–,12.5,91.3,1.83,"CCOc1cc(N2CCC(N3CCN(CC4CN(c5cc(F)cc6c5n(C)c(=O)n6C5CCC(=O)NC5=O)C4)CC3)CC2)c(CC)cc1Nc1ncc(Br)c(Nc2ccc3nc(CC)ccc3c2P(C)(C)=O)n1 (centres unmarked) [Example 467, 3-(4-(3-((4-(1-(4-((5-bromo-4-((5-(dimethylphosphoryl)-2-ethylquinolin-6-yl)amino)pyrimidin-2-yl)amino)-5-ethoxy-2-ethylphenyl)piperidin-4-yl)piperazin-1-yl)methyl)azetidin-1-yl)-6-fluoro-3-methyl-2-oxo-2,3-dihydro-1H-benzo[d]imidazol-1-yl)piperidine-2,6-dione]",–,76.06
–,–,–,13.8,84.5,0.812,"CCc1cc(Nc2ncc(Br)c(Nc3ccc4nc(C)ccc4c3P(C)(C)=O)n2)c(OC)cc1N1CCC(N2CCN(CCc3cc(F)c(C4CCC(=O)NC4=O)c(F)c3)[C@@H](C)C2)CC1 (stereo partly drawn) [Example 693, 3-(4-(2-((S)-4-(1-(4-((5-bromo-4-((5-(dimethylphosphoryl)-2-methylquinolin-6-yl)amino)pyrimidin-2-yl)amino)-2-ethyl-5-methoxyphenyl)piperidin-4-yl)-2-methylpiperazin-1-yl)ethyl)-2,6-difluorophenyl)piperidine-2,6-dione]",–,66.27
–,–,–,5.39,92.9,0.354,"CCOc1cc(N2CCC(N3CCN(C(=O)COc4cccc5c4n(C)c(=O)n5C4CCC(=O)NC4=O)CC3)CC2)c(CC)cc1Nc1ncc(Br)c(Nc2ccc3nc(CC)ccc3c2P(C)(C)=O)n1 (centres unmarked) [Example 637, 3-(4-(2-(4-(1-(4-((5-bromo-4-((5-(dimethylphosphoryl)-2-ethylquinolin-6-yl)amino)pyrimidin-2-yl)amino)-5-ethoxy-2-ethylphenyl)piperidin-4-yl)piperazin-1-yl)-2-oxoethoxy)-3-methyl-2-oxo-2,3-dihydro-1H-benzo[d]imidazol-1-yl)piperidine-2,6-dione]",–,69.46
–,–,–,10.2,85.2,1.37,"COc1cc(N2CCC(N3CCN(C(=O)[C@H]4CCN(c5cc(F)c(C6CCC(=O)NC6=O)c(F)c5)C4)CC3)CC2)c(C)cc1Nc1ncc(Br)c(Nc2ccc3c(=O)n(C)ncc3c2P(C)(C)=O)n1 (stereo partly drawn) [Example 513, 3-(4-((S)-3-(4-(1-(4-((5-bromo-4-((5-(dimethylphosphoryl)-2-methyl-1-oxo-1,2-dihydrophthalazin-6-yl)amino)pyrimidin-2-yl)amino)-5-methoxy-2-methylphenyl)piperidin-4-yl)piperazine-1-carbonyl)pyrrolidin-1-yl)-2,6-difluorophenyl)piperidine-2,6-dione]",–,78.24
